Assays:
[1] = shake flask on a mixture of 185; loss from the water phase only; LC-Orbitrap peak areas; conditions: room
[2] = shake flask on a mixture of 185; loss from the water phase only; LC-QTOF peak areas; conditions: room

Row | Structure (SMILES) | log partition 1-octanol / HPLC water, unbuffered, traces of methanol / DMSO [1] [log10] | log partition butyl acetate / HPLC water, unbuffered, traces of methanol / DMSO [1] [log10] | log partition chloroform / HPLC water, unbuffered, traces of methanol / DMSO [1] [log10] | log partition cyclohexane / HPLC water, unbuffered, traces of methanol / DMSO [1] [log10] | log partition dichloromethane / HPLC water, unbuffered, traces of methanol / DMSO [1] [log10] | log partition n-hexane / HPLC water, unbuffered, traces of methanol / DMSO [1] [log10] | log partition n-octane / HPLC water, unbuffered, traces of methanol / DMSO [1] [log10] | log partition n-undecane / HPLC water, unbuffered, traces of methanol / DMSO [1] [log10] | log partition oleylalcohol / HPLC water, unbuffered, traces of methanol / DMSO [1] [log10] | log partition toluene / HPLC water, unbuffered, traces of methanol / DMSO [1] [log10] | log partition 1-octanol / HPLC water, unbuffered, traces of methanol / DMSO [2] [log10] | log partition butyl acetate / HPLC water, unbuffered, traces of methanol / DMSO [2] [log10] | log partition chloroform / HPLC water, unbuffered, traces of methanol / DMSO [2] [log10] | log partition cyclohexane / HPLC water, unbuffered, traces of methanol / DMSO [2] [log10] | log partition dichloromethane / HPLC water, unbuffered, traces of methanol / DMSO [2] [log10] | log partition n-hexane / HPLC water, unbuffered, traces of methanol / DMSO [2] [log10] | log partition n-octane / HPLC water, unbuffered, traces of methanol / DMSO [2] [log10] | log partition n-undecane / HPLC water, unbuffered, traces of methanol / DMSO [2] [log10] | log partition oleylalcohol / HPLC water, unbuffered, traces of methanol / DMSO [2] [log10] | log partition toluene / HPLC water, unbuffered, traces of methanol / DMSO [2] [log10]
1 | CO/N=C(/C1=NOCCO1)c1ccccc1Oc1ncnc(Oc2ccccc2Cl)c1F | 3.061 | 2.459 | 1.134 | 1.413 | 1.68 | 1.053 | 1.336 | 1.233 | 1.908 | 1.832 | 2.317 | 2.442 | 2.253 | 1.674 | 2.488 | 1.734 | 1.431 | 1.557 | 2.253 | 2.389
2 | c1ccc2[nH]c(-c3cscn3)nc2c1 | 1.814 | 2.093 | 1.499 | 0.0278 | 1.694 | -0.1668 | -0.1168 | -1.167 | 1.762 | 0.9569 | 0.8781 | 0.7498 | 0.5738 | -1.051 | 0.733 | -0.9485 | -1.018 | -1.324 | 0.7334 | 0.2898
3 | NC(=O)Nc1ccc(Cl)cc1 | 0.591 | 0.6709 | -0.4936 | – | -0.3897 | – | – | – | 0.6552 | -1.194 | 1.214 | 0.7995 | -0.1363 | – | -0.2421 | – | – | – | 1.051 | -0.9053

— PMC10569036
